Data taken from patent US20080269293A1, “PYRAZOLE DERIVATIVES AS ANTI-PLATELET AND ANTI-THROMBOTIC AGENTS” (Pfizer Inc., priority 2006, published 2008).

Target: T1, platelet P2Y1 receptor (Homo sapiens, UniProt P47900)
T1 construct: expressed in transfected cells
Test: P2Y1 receptor binding assay ([β-33P]-2-thiomethyl ADP)
Conditions: binding of 0.3 nM [β-33P]-2-thiomethyl ADP, hP2Y1 expressing 132N1 cell membrane, 25° C., 60 minutes
Description: Conducting P2Y, Receptor Binding Assay
[β−^33P]-2-thiomethyl ADP (2100 Ci/mmol) was purchased from PerkinElmer, Protease Inhibitors Complete, EDTA-free, was purchased from Roche, and ADP (Adenosine diphosphate), MRS2179, and 2-thiomethy ADP (2-Me-S-ADP) were purchased from Sigma Chemical Co.
Binding of 0.3 nM [β-^33P]-2-thiomethyl ADP to platelet P2Y1 receptor in 132N1 cell membrane was carried out in triplicate at 25° C. with 96 well plate (Corning, 3365). Nonspecific binding was defined as binding in the presence of 1 μM of 2-Me-S-ADP. One […] of dimethyl sulfoxide (DMSO) or 1 μL of DMSO (Sigma-Aldrich, 472301) containing a test compound diluted to final assay concentrations of 0.1 nM to 1 mM were placed into each well of a Corning 96-well plate. A volume of 60 μL of buffer: 50 mM Tris pH 7.5 (Sigma, T-2194), 1 mM EDTA (Gibco, 15575-038) and 100 mM NaCl (Gibco, 200740-011) containing 0.3 nM [β-^33P]-2-thiomethyl ADP 40 μL of hP2Y1 expressing 132N1 cell membrane prep was added to each well. After incubation on shaker for 60 minutes, The contents of the wells are filtered and washed 8 times with Tomtec Cell Harvester through UniFilter 96, GF/B plates (PerkinElmer, 6005177) Forty five microliters […] Scintillation cocktail (Ultima-Flo-M) was added into each well and plates counted on a Trilux Microbeta Counter.
• 1. Add 1 μL DMSO or compounds into the wells according to the protocol. • 2. Add 60 μL incubation buffer with [β-^33P]-2-thiomethyl ADP into each well. • 3. Add 40 μL hP2Y1 expressing 132N1 cell membrance prep. Incubate 60 minutes on top of the shaker (IKA Shutter MTS4). • 4. Filter and wash 8× with Tomtec Cell Harvester through UniFilter GF/B plates (PerkinElmer, 6005177). • 5. Add 45 μL scintillation cocktail into each well and plates counted on a Trilux Microbeta Counter.

T1 sequence (P47900 whole entry): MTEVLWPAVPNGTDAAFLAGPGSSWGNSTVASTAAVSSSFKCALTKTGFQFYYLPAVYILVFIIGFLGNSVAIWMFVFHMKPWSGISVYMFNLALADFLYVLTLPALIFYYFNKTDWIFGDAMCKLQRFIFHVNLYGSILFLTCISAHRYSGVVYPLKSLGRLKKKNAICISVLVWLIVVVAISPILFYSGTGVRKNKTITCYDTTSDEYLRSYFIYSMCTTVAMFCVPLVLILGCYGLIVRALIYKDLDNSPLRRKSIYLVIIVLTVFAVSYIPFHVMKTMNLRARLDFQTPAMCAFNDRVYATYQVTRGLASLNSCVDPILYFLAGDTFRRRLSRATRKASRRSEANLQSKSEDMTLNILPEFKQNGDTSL

Compound | IC50 [nM]
1-Phenyl-5-{2-[3-(4-trifluoromethoxy-phenyl)-ureido]-phenoxy}-1H-pyrazole-3-carboxylic acid methyl ester [Example 26] | > 10000
Cc1cc(Oc2ccccc2NC(=O)Nc2ccc(OC(F)(F)F)cc2)n(-c2ccccc2Cl)n1 [Example 2, 1-{2-[2-(2-Chloro-phenyl)-5-methyl-2H-pyrazol-3-yloxy]-phenyl}-3-(4-trifluoromethoxy-phenyl)-urea] | 89
Cc1cc(Oc2ccccc2NC(=O)Nc2ccc(OC(F)(F)F)cc2)n(-c2cccc(Cl)c2Cl)n1 [Example 4] | 89
Cc1ccc(-n2nc(C)cc2Oc2ccccc2NC(=O)Nc2ccc(OC(F)(F)F)cc2)cc1 [Example 10] | 188
Cc1cc(Oc2ccccc2NC(=O)Nc2ccc(OC(F)(F)F)cc2)n(-c2ccc(F)cc2F)n1 [Example 14] | 133
Cc1cc(Oc2ccccc2NC(=O)Nc2ccc(OC(F)(F)F)cc2)n(-c2ccc(F)cc2)n1 [Example 15] | 283
Cc1cc(Oc2ccccc2NC(=O)Nc2ccc(OC(F)(F)F)cc2)n(-c2cccc(F)c2)n1 [Example 17] | 307
COc1ccc(-n2nc(C)cc2Oc2ccccc2NC(=O)Nc2ccc(OC(F)(F)F)cc2)cc1 [Example 18] | 731
Cc1cc(Oc2ccccc2NC(=O)Nc2ccc(OC(F)(F)F)cc2)n(-c2c(Cl)cccc2Cl)n1 [Example 19] | 142
Cc1cc(Oc2ncccc2NC(=O)Nc2ccc(C(C)(C)C)cc2)n(-c2ccccc2)n1 [Example 21, 1-(4-tert-Butyl-phenyl)-3-[2-(5-methyl-2-phenyl-2H-pyrazol-3-yloxy)-pyridin-3-yl]-urea] | 272
O=C(Nc1ccc(OC(F)(F)F)cc1)Nc1ccccc1Oc1ccnn1-c1ccccc1 [Example 24, 1-[2-(2-Phenyl-2H-pyrazol-3-yloxy)-phenyl]-3-(4-trifluoromethoxy-phenyl)-urea] | 306

Continued, values first:

IC50 [nM] | Compound
152 | Cc1cc(Oc2ccccc2NC(=O)Nc2ccc(OC(F)(F)F)cc2)n(-c2ccccc2C)n1 [Example 1, 1-[2-(5-Methyl-2-o-tolyl-2H-pyrazol-3-yloxy)-phenyl]-3-(4-trifluoromethoxy-phenyl)-urea]
48 | CCc1ccccc1-n1nc(C)cc1Oc1ccccc1NC(=O)Nc1ccc(OC(F)(F)F)cc1 [Example 3]
459 | Cc1cccc(-n2nc(C)cc2Oc2ccccc2NC(=O)Nc2ccc(OC(F)(F)F)cc2)c1 [Example 5]
95 | Cc1cc(Oc2ccccc2NC(=O)Nc2ccc(C(C)(C)C)cc2)n(-c2ccccc2Cl)n1 [Example 6]
122 | Cc1cc(Oc2ccccc2NC(=O)Nc2ccc(OC(F)(F)F)cc2)n(-c2cccc(Cl)c2)n1 [Example 7]
128 | Cc1cc(Oc2ccccc2NC(=O)Nc2ccc(OC(F)(F)F)cc2)n(-c2ccccc2C(F)(F)F)n1 [Example 8]
253 | Cc1cc(Oc2ccccc2NC(=O)Nc2ccc(OC(F)(F)F)cc2)n(-c2ccccc2F)n1 [Example 9]
991 | COc1ccccc1-n1nc(C)cc1Oc1ccccc1NC(=O)Nc1ccc(OC(F)(F)F)cc1 [Example 11]
207 | Cc1cc(Oc2ccccc2NC(=O)Nc2ccc(C(C)(C)C)cc2)n(-c2ccccc2)n1 [Example 12]
246 | Cc1cc(Oc2ccccc2NC(=O)Nc2ccc(OC(F)(F)F)cc2)n(-c2ccc(Cl)cc2)n1 [Example 13]
150 | Cc1cc(Oc2ccccc2NC(=O)Nc2ccc(OC(F)(F)F)cc2)n(-c2ccc(Cl)cc2Cl)n1 [Example 20]
139 | Cc1cc(Oc2ncccc2NC(=O)Nc2ccc(OC(F)(F)F)cc2)n(-c2ccccc2Cl)n1 [Example 22, 1-{2-[2-(2-Chloro-phenyl)-5-methyl-2H-pyrazol-3-yloxy]-pyridin-3-yl}-3-(4-trifluoromethoxy-phenyl)-urea]
8990 | Cc1cc(Oc2ccncc2NC(=O)Nc2ccc(OC(F)(F)F)cc2)n(-c2ccccc2)n1 [Example 23, 1-[4-(5-Methyl-2-phenyl-2H-pyrazol-3-yloxy)-pyridin-3-yl]-3-(4-trifluoromethoxy-phenyl)-urea]
